Patent publication US6673790B1, “Indolin-2-one derivatives, preparation and their use as ocytocin receptor ligands” (Sanofi-Synthelabo, priority 2002, dated 2004)

Assays:
[1] = target: human vasopressin V2 receptors (Homo sapiens, UniProt P30518); test: affinity for vasopressin V2 receptors (method of Birnbaumer et al.); format: binding; settings: read-out: IC50 with respect to the V2 receptors
Excerpt: (§1) The affinity of the compounds according to the invention for human vasopressin V1a receptors (method described by M. Thibonnier et al. in J. Biol. Chem., 1994, 269, 3304-3310), V1b receptors (method described by T. Sugimoto et al. in J. Biol. Chem., 1994, 269, 27088-27092) and V2 receptors (method described by M. Birnbaumer et al. in Nature (Lond.), 1992, 357, 333-335) has also been studied. The compounds studied have little or no affinity for the V1a, V1b and V2 receptors.

[2] = target: T1, human vasopressin V1b receptors (Homo sapiens, UniProt P47901); test: affinity for vasopressin V1b receptors (method of Sugimoto et al.); format: binding; settings: read-out: IC50 with respect to the V1b receptors
T1 sequence (P47901 1-424): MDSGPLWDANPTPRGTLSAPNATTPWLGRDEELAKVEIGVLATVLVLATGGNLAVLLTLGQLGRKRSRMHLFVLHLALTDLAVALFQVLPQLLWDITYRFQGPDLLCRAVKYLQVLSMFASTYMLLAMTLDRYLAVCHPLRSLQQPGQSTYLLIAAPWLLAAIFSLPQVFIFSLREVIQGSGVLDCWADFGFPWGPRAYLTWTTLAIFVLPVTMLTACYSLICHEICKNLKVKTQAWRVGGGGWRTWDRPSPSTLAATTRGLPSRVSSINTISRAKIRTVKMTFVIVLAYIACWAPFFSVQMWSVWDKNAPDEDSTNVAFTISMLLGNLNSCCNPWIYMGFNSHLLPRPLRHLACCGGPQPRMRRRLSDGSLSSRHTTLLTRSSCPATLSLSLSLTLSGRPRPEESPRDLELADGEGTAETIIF
Excerpt: as §1

[3] = target: T2, human uterine oxytocin receptors (Homo sapiens, UniProt P30559); test: in vitro binding test: displacement of a radioiodinated oxytocin analogue in a membrane preparation
T2 construct: host or cells: membrane preparation
T2 sequence (P30559 1-389): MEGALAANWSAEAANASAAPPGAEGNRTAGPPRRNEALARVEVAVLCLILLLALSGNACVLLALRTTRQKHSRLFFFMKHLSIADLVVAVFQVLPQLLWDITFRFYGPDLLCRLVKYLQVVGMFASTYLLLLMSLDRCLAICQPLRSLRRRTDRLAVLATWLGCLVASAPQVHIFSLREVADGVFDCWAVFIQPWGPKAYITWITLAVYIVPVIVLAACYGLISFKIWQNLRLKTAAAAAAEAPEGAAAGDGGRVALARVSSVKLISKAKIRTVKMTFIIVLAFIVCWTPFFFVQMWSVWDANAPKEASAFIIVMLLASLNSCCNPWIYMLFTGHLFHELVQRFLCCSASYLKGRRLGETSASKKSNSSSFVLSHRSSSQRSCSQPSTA
Method: The compounds according to the invention have formed the subject of biochemical and pharmacological studies. The affinity of the compounds according to the invention for oxytocin receptors was determined in an in vitro binding test using the method described by J. Elands et al. in Eur. Pharmacol., 1987, 147, 192-207. This method consists in studying in vitro the displacement of a radioiodinated oxytocin analogue at the oxytocin receptors in a membrane preparation of human uterine oxytocin receptors. The IC50 values (concentration which inhibits 50% of the binding of the radioiodinated oxytocin analogue to its receptors) are low and vary from 10^−10 to 10^−6 M in the latter test.

[4] = target: human vasopressin V1a receptors (Homo sapiens, UniProt P37288); test: affinity for vasopressin V1a receptors (method of Thibonnier et al.); format: binding; settings: read-out: IC50 with respect to the V1a receptors
Chain of human vasopressin V1a receptors (P37288 whole entry): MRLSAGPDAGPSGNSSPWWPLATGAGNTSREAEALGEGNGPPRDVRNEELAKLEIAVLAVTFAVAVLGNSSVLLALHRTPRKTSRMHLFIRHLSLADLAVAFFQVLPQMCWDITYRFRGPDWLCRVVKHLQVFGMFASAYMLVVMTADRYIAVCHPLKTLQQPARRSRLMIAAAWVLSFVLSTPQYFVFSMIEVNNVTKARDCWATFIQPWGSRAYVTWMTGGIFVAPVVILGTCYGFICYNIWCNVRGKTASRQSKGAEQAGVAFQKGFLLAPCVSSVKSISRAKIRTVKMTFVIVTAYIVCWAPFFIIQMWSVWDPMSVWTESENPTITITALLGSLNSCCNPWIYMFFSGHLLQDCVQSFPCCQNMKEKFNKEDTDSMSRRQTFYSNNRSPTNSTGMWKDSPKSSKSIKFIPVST
Excerpt: as §1

[5] = target: T3, cells expressing human oxytocin receptors (Homo sapiens, UniProt P30559); test: measurement of intracellular calcium, agonist or antagonist nature; format: cell-based
T3 sequence (P30559 1-389): T2 sequence (P30559 1-389)
Method: The agonist or antagonist nature of the compounds is determined in vitro in a test for the measurement of intracellular calcium with respect to cells expressing human oxytocin receptors according to the general technique described in Am. J. Physiol., 268 (Heart Circ. Physiol., 37), 1995, H404-H410.

Chain of human vasopressin V2 receptors (P30518 whole entry): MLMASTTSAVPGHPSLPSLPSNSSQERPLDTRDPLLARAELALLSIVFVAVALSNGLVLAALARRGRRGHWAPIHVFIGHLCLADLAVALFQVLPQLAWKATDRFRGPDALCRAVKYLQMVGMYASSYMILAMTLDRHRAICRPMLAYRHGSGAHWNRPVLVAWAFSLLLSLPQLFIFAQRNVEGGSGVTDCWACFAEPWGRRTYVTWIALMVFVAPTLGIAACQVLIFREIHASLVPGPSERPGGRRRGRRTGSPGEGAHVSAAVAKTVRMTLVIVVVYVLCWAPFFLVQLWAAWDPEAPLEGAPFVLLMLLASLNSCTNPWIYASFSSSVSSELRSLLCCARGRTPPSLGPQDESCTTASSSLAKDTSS

melting point [°C]	SMILES	also measured
98	COCC1CCCN1C(=O)c1ccc(Cl)c(C2(C)C(=O)N(Cc3ccc(OC)cc3OC)c3ccc(Cl)cc32)c1 (stereo not shown)	
166	CCN(C)C(=O)c1ccc(Cl)c(C2(C)C(=O)N(Cc3ccc(OC)cc3OC)c3ccc(Cl)cc32)c1 (stereo not shown)	
116	COC(=O)C1CCCCN1C(=O)c1ccc(Cl)c(C2(C)C(=O)N(Cc3ccc(OC)cc3OC)c3ccc(Cl)cc32)c1 (stereo not shown)	
114	COCCOCc1ccc(Cl)c(C2(C)C(=O)N(Cc3ccc(OC)cc3OC)c3ccc(Cl)cc32)c1 (stereo not shown)	
145	COc1ccc(CN2C(=O)C(C)(c3cc(CN4CCOCC4)ccc3Cl)c3cc(Cl)ccc32)c(OC)c1 (stereo not shown)	
86.3	CCN(CCOC)C(=O)c1ccc(Cl)c(C2(C)C(=O)N(Cc3ccc(OC)cc3OC)c3ccc(Cl)cc32)c1 (stereo not shown)	
111.7	CCN(CCc1ccccc1)C(=O)c1ccc(Cl)c(C2(C)C(=O)N(Cc3ccc(OC)cc3OC)c3ccc(Cl)cc32)c1 (stereo not shown)	
102.8	CCN(C(=O)c1ccc(Cl)c(C2(C)C(=O)N(Cc3ccc(OC)cc3OC)c3ccc(Cl)cc32)c1)C(C)C (stereo not shown)	
129.8	COc1ccc(CN2C(=O)C(C)(c3cc(C(=O)NC4CCCCC4)ccc3Cl)c3cc(Cl)ccc32)c(OC)c1 (stereo not shown)	
191	COCC(=O)Nc1ccc(Cl)c(C2(C)C(=O)N(Cc3ccc(OC)cc3OC)c3ccc(Cl)cc32)c1 (stereo not shown)	
184	COc1ccc(CN2C(=O)C(C)(c3cc(C(=O)N(C)C)ccc3Cl)c3cc(Cl)ccc32)c(OC)c1 (stereo not shown) (hydrate or solvate)	
248	CCNC(=O)c1ccc(Cl)c(C2(C)C(=O)N(Cc3ccc(OC)cc3OC)c3ccc(Cl)cc32)c1 (stereo not shown) (hydrate or solvate)	
73	COc1ccc(CN2C(=O)C(C)(c3cc(N(C)S(=O)(=O)c4ccccc4)ccc3Cl)c3cc(Cl)ccc32)c(OC)c1 (stereo not shown) (hydrate or solvate)	
	COc1ccc(CN2C(=O)C(C)(c3ccccc3Cl)c3cc(Cl)ccc32)c(OC)c1 (racemic) [Example 1, 5-Chloro-3-(2-chlorophenyl)-1-(2,4-dimethoxybenzyl)-3-methylindolin-2-one]	IC50 [1]: > 1 µM; IC50 [2]: > 1 µM; IC50 [3]: < 0.05 µM; IC50 [4]: > 1 µM
	COc1ccc(CN2C(=O)C(C)(c3ccccc3Cl)c3cc(Cl)ccc32)c(OC)c1 (single isomer, unassigned) [dextrorotatory enantiomer of Example 1, 5-Chloro-3-(2-chlorophenyl)-1-(2,4-dimethoxybenzyl)-3-methylindolin-2-one]	agonist or antagonist nature [5]: antagonist; IC50 ([5]; read-out: IC50 as antagonist): 0.0032 ± 0.0019 µM
